This experiment has as its system P388 leukemia ip, CD2F1 mice, survival T/C. The experiment in a line: NCI In Vivo Anticancer Drug Screen. Data for tumor model P388 Leukemia (intraperitoneal) in CD2F1 (CDF1) mice. To be noted: endpoint: median survival time, higher = longer survival. In short, it runs like this:
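Mice carrying the transplanted tumor received test compound or vehicle. Survival was recorded in each group, and the value is the treated-group measurement divided by that of the vehicle-treated control group.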

The mark [1] stands for this setting: dose: 50.0 mg/kg/injection, schedule: Q01DX009 (ip), vehicle: saline with Tween-80.
Where [2] appears, read: dose: 100.0 mg/kg/injection, schedule: Q01DX009 (ip), vehicle: saline with Tween-80.
The mark [3] stands for this setting: dose: 200.0 mg/kg/injection, schedule: Q01DX009 (ip), vehicle: saline with Tween-80.
[4] abbreviates: dose: 60.0 mg/kg/injection, schedule: Q01DX005 (ip), vehicle: saline with Tween-80.
[5] abbreviates: dose: 120.0 mg/kg/injection, schedule: Q01DX005 (ip), vehicle: saline with Tween-80.
The mark [6] stands for this setting: dose: 240.0 mg/kg/injection, schedule: Q01DX005 (ip), vehicle: saline with Tween-80.
The mark [7] stands for this setting: dose: 50.0 mg/kg/injection, schedule: Q01DX005 (ip), vehicle: saline with Tween-80.
Setting [8] is: dose: 50.0 mg/kg/injection, schedule: Q01DX009 (ip), vehicle: Klucel (hydroxypropylcellulose) (HPC).
Where [9] appears, read: dose: 100.0 mg/kg/injection, schedule: Q01DX009 (ip), vehicle: Klucel (hydroxypropylcellulose) (HPC).
Setting [10] is: dose: 200.0 mg/kg/injection, schedule: Q01DX009 (ip), vehicle: Klucel (hydroxypropylcellulose) (HPC).
[11] abbreviates: dose: 2.0 mg/kg/injection, schedule: Q01DX009 (ip), vehicle: saline.
The mark [12] stands for this setting: dose: 8.0 mg/kg/injection, schedule: Q01DX009 (ip), vehicle: saline.

“And” between values parts separate entries of the source, which are not always exact repeats. Equal values may be shown once. Toxic doses and inconclusive results are not listed.

As to `N#CN=CN1CCN(c2ccccc2)CC1`, the T/C under setting [1] is 100 % of control, the T/C under setting [2] is 97 % of control and the T/C under setting [3] is 99 % of control.
`CC(C(O)CO)n1cnc2c(NCC(O)CO)ncnc21` (stereo not drawn): the T/C reads like this: (dose: 100.0 mg/kg/injection, schedule: Q01DX001 (ip), vehicle: saline with Tween-80) 101 % of control; (dose: 200.0 mg/kg/injection, schedule: Q01DX001 (ip), vehicle: saline with Tween-80) 107 % of control; (dose: 400.0 mg/kg/injection, schedule: Q01DX001 (ip), vehicle: saline with Tween-80) 100 % of control.
For the molecule `O=C1Nc2ccccc2NC(=O)C1(O)O`, the T/C runs as follows: (dose: 50.0 mg/kg/injection, schedule: Q01DX005 (ip), vehicle: Klucel (hydroxypropylcellulose) (HPC)) 100 % of control; (dose: 100.0 mg/kg/injection, schedule: Q01DX005 (ip), vehicle: Klucel (hydroxypropylcellulose) (HPC)) 101 % of control; (dose: 200.0 mg/kg/injection, schedule: Q01DX005 (ip), vehicle: Klucel (hydroxypropylcellulose) (HPC)) 101 % of control.
As for `CCOC(=O)CNC(=O)OC(C)(C)C`, the T/C is, setting by setting: under setting [4], 103 % of control; under setting [5], 100 % of control; under setting [6], 108 % of control.
On to `COC(C)C(NC=O)C(=O)O` (stereo not drawn), for which the T/C (dose: 50.0 mg/kg/injection, schedule: Q01DX005 (ip), vehicle: saline) is 100 % of control and 99 % of control; the T/C (dose: 100.0 mg/kg/injection, schedule: Q01DX005 (ip), vehicle: saline) is 96 % of control and 98 % of control; the T/C (dose: 200.0 mg/kg/injection, schedule: Q01DX005 (ip), vehicle: saline) was 100 % of control and 91 % of control.
On to `CC1=NCCN=C(C)C1N=Nc1ccc(S(=O)(=O)Nc2ncccn2)cc1`, for which the T/C by setting is: (dose: 100.0 mg/kg/injection, schedule: Q04DX003 (ip), vehicle: saline with Tween-80) 96 % of control; (dose: 200.0 mg/kg/injection, schedule: Q04DX003 (ip), vehicle: saline with Tween-80) 93 % of control; (dose: 400.0 mg/kg/injection, schedule: Q04DX003 (ip), vehicle: saline with Tween-80) 99 % of control.
As to `CC1=C(C)C(=O)c2cc3c(-c4ccccc4)oc(-c4ccccc4)c3cc2C1=O`, the T/C is, setting by setting: (dose: 12.5 mg/kg/injection, schedule: Q01DX005 (ip), vehicle: saline with Tween-80) 93 % of control; (dose: 25.0 mg/kg/injection, schedule: Q01DX005 (ip), vehicle: saline with Tween-80) 95 % of control; under setting [7], 86 % of control and 96 % of control.
For `Brc1c(-c2ccccc2)nc2ccccc2c1Br`, the T/C is, setting by setting: under setting [7], 103 % of control; (dose: 100.0 mg/kg/injection, schedule: Q01DX005 (ip), vehicle: saline with Tween-80) 97 % of control; (dose: 200.0 mg/kg/injection, schedule: Q01DX005 (ip), vehicle: saline with Tween-80) 94 % of control.
For the molecule `O=C(Nc1ccc(O)cc1)C(F)(F)F`, the T/C runs as follows: under setting [8], 93 % of control; under setting [9], 95 % of control; under setting [10], 90 % of control.
`Nc1ncnc2c1ccn2C1OC2COP(=O)(O)OC2C1O` (stereo not drawn): the T/C is, setting by setting: (dose: 0.13 mg/kg/injection, schedule: Q03HX024 (ip), vehicle: saline) 90 % of control; (dose: 0.25 mg/kg/injection, schedule: Q03HX024 (ip), vehicle: saline) 104 % of control; (dose: 0.5 mg/kg/injection, schedule: Q03HX024 (ip), vehicle: saline) 100 % of control; (dose: 1.0 mg/kg/injection, schedule: Q01DX009 (ip), vehicle: saline) 100 % of control; (dose: 1.0 mg/kg/injection, schedule: Q03HX024 (ip), vehicle: saline) 122 % of control; (dose: 1.0 mg/kg/injection, schedule: Q04DX003 (ip), vehicle: saline) 104 % of control. In addition, the T/C (dose: 2.0 mg/kg/injection, schedule: Q01DX001 (ip), vehicle: saline) is 100 % of control; the T/C under setting [11] was 104 % of control; the T/C (dose: 2.0 mg/kg/injection, schedule: Q04DX003 (ip), vehicle: saline) was 100 % of control; the T/C (dose: 4.0 mg/kg/injection, schedule: Q01DX001 (ip), vehicle: saline) is 100 % of control; the T/C (dose: 4.0 mg/kg/injection, schedule: Q04DX003 (ip), vehicle: saline) was 104 % of control; the T/C (dose: 8.0 mg/kg/injection, schedule: Q01DX001 (ip), vehicle: saline) is 109 % of control. Further, the T/C runs as follows: under setting [12], 95 % of control; (dose: 8.0 mg/kg/injection, schedule: Q04DX003 (ip), vehicle: saline) 113 % of control; (dose: 16.0 mg/kg/injection, schedule: Q01DX001 (ip), vehicle: saline) 118 % of control.
For the molecule `Nc1cc(=O)n(Cc2ccccc2)c(N)c1C(=O)NCc1ccccc1`, the T/C by setting is: under setting [4], 106 % of control; under setting [5], 98 % of control; under setting [6], 100 % of control.
For `CC(=O)OCC1OC(OC(C)=O)C(NC(=O)C(C)NC(=O)OCc2ccccc2)C(OC(C)=O)C1OC(C)=O` (stereo not drawn), the T/C reads like this: (dose: 12.5 mg/kg/injection, schedule: Q01DX009 (ip), vehicle: other) 99 % of control; (dose: 25.0 mg/kg/injection, schedule: Q01DX009 (ip), vehicle: other) 104 % of control; (dose: 50.0 mg/kg/injection, schedule: Q01DX009 (ip), vehicle: other) 113 % of control; (dose: 100.0 mg/kg/injection, schedule: Q01DX009 (ip), vehicle: other) 104 % of control; (dose: 200.0 mg/kg/injection, schedule: Q01DX009 (ip), vehicle: other) 92 % of control.
Regarding `c1ccc2c(SCCOCCSc3c4ccccc4nc4ccccc34)c3ccccc3nc2c1`, the T/C reads like this: under setting [4], 98 % of control; under setting [5], 92 % of control; under setting [6], 90 % of control.
For the molecule `C[n+]1ccc(Nc2ccc(NC(=O)c3ccc(Nc4cc[n+](C)c5ccc([N+](=O)[O-])cc45)cc3)cc2)cc1`, the T/C is, setting by setting: under setting [11], 164 % of control; (dose: 4.0 mg/kg/injection, schedule: Q01DX009 (ip), vehicle: saline) 158 % of control and 178 % of control; under setting [12], 177 % of control and 195 % of control; (dose: 16.0 mg/kg/injection, schedule: Q01DX009 (ip), vehicle: saline) 226 % of control and 257 % of control; (dose: 32.0 mg/kg/injection, schedule: Q01DX009 (ip), vehicle: saline) 281 % of control and 288 % of control; (dose: 64.0 mg/kg/injection, schedule: Q01DX009 (ip), vehicle: saline) 121 % of control.
In the case of `COc1cc2c3c(c1O)-c1cc4c(cc1CC3N(C)CC2)OCO4` (stereo not drawn), the T/C reads like this: (dose: 10.0 mg/kg/injection, schedule: Q01DX009 (ip), vehicle: saline with Tween-80) 102 % of control; (dose: 20.0 mg/kg/injection, schedule: Q01DX009 (ip), vehicle: saline with Tween-80) 104 % of control; (dose: 40.0 mg/kg/injection, schedule: Q01DX009 (ip), vehicle: saline with Tween-80) 98 % of control; (dose: 100.0 mg/kg/injection, schedule: Q04DX002 (ip), vehicle: saline with Tween-80) 97 % of control.
In the case of `CC1CN(CCC#N)CC(C)O1` (stereo not drawn), the T/C (dose: 25.0 mg/kg/injection, schedule: Q01DX009 (ip), vehicle: saline) is 101 % of control; the T/C (dose: 50.0 mg/kg/injection, schedule: Q01DX009 (ip), vehicle: saline) was 101 % of control; the T/C (dose: 100.0 mg/kg/injection, schedule: Q01DX009 (ip), vehicle: saline) is 101 % of control; the T/C (dose: 200.0 mg/kg/injection, schedule: Q01DX009 (ip), vehicle: saline) is 104 % of control.
With `CCCCCCCCCCCCCCCC(=O)Nc1ncc([N+](=O)[O-])s1`, the T/C runs as follows: under setting [8], 86 % of control; under setting [9], 96 % of control; under setting [10], 96 % of control.
For `CCCCCCCCCCCCCCCC(=O)N(CCC#N)CCC#N`, the T/C is, setting by setting: under setting [2], 185 % of control; under setting [3], 100 % of control.
Take `COc1ccc(CCN2CN=C(Sc3ccc([N+](=O)[O-])cc3Cl)NC2)cc1OC`: the T/C by setting is: under setting [1], 98 % of control; under setting [2], 98 % of control; under setting [3], 93 % of control.
Turning to `COP(=O)(O)NS(=O)(=O)c1ccccc1`, the T/C (dose: 100.0 mg/kg/injection, schedule: Q01DX001 (ip), vehicle: saline) was 101 % of control; the T/C (dose: 200.0 mg/kg/injection, schedule: Q01DX001 (ip), vehicle: saline) is 101 % of control; the T/C (dose: 400.0 mg/kg/injection, schedule: Q01DX001 (ip), vehicle: saline) is 102 % of control.
